Experiments:
[1] = Stability and radiochemical purity of the [3H]-Compound 10 formulation incubated at 37° C.; assay type: physicochemical
Experimental: The stability and radiochemical purity (RCP) of the radiolabeled [^3H]-Compound 10 was established in a concurrent experiment where a formulation of radiolabeled [3^H]-Compound 10 was incubated at 37° C. and radiochemical purity (RCP) of aliquots were analyzed over time and determined to be ˜ 95.5% (Days 0, 7, 14 and 30), 94.5% (Day 60), 93% (Day 90), and 83% (Day 180).

[2] = Persistence of radiolabeled Compound 10 in rabbit knee joints; assay type: in vivo; conditions: rabbits; two single IA injections in two knees at 4 μg/knee; after 1 hour up to 168 hours
IL-6 = assay: Inhibition of IL-6 in LPS-stimulated human monocyte cells (THP-1), HTRF; assay type: cell-based; conditions: Homo sapiens; THP-1 cells, LPS 500 ng/mL, IL-6 by HTRF
Experimental: Human Monocyte Cell Culture: A human monocyte cell line (THP-1 cells; Catalog #TIB-202, ATCC, Manassas, Va.) was cultured in Roswell Park Memorial Institute (RPMI) 1640 Medium (Catalog #21870-100, Buffalo, N.Y.) with 1% L-glutamine, 1% HEPES, 1% sodium pyruvate, 2% sodium bicarbonate supplemented with 100 units/mL penicillin, 50 μg/mL streptomycin, 2-mercaptoethanol (0.05 mM) [basal medium] and 10% fetal bovine serum (Catalog #16140089, Life Technologies, Carlsbad, Calif.) at 37° C. and 5% CO2.
Compound Screening: THP-1 cells were cultured in basal media with 1% FBS for 24 hours before the start of the assay. Each compound of Formula (I) was dissolved in DMSO as a 10 mM stock and used to prepare compound source plates. Serial dilution (1:3, 10-point dose-response curves starting from 10 μM) and compound transfer was performed using the ECHO 550 (Labcyte, Sunnyvale, Calif.) into 384-well white low volume assay plates (Greiner Bio-One) with appropriate DMSO backfill for a final DMSO concentration of 0.1%. THP-1 cells were plated at 5000 cells/well in the 384-well plates and incubated at 37° C. for 2 h. 500 ng/mL of LPS was added after 2 hours and cells were incubated for another 22 hours at 37° C. Plates were spun in a centrifuge for 1 minute at 10,000 rpm and a mixture of anti-IL-6 XL665, and anti-IL-6 Cryptate diluted in reconstitution buffer (Cisbio Inc.) was added to each well. Following incubation for 3 hrs at room temperature, homogeneous time-resolved fluorescence (HTRF) was measured using the Envision (Perkin Elmer) at 665 nm and […]. The ratio of fluorescence at 665 nm to 620 nm was used as a readout for IL-6 quantification. All samples were processed in duplicate. Readings were normalized to DMSO treated cells and normalized activities were utilized for EC50 calculations using the dose-response log (inhibitor) vs. response -variable slope (four parameters) nonlinear regression feature available in GraphPad Prism 5.0 (or Dotmatics). For EC50 of >10 μM, the percent inhibition at 10 μM is provided.

[3] = test system: Tumor Necrosis Factor Alpha (TNF-α); assay: Inhibition of TNF-α secretion in IL-1β-stimulated synovial fibroblasts (SW982), ELISA; assay type: cell-based; conditions: human synovial fibroblasts stimulated with IL-1β, treated 24 hrs, FIG. 14A
Experimental: Synovial fibroblasts (SW982 cells; ATCC) were cultured in Leibovitz's L-15 Medium (ATCC) with 10% FBS at 37° C. and 0% CO2. 24 hours before the start of the assay, media was changed to Leibovitz's L-15 Medium with […]. Compound 10 was dissolved in DMSO as a 10 mM stock and used to prepare compound source plates. A serial dilution (8-point dose-response) and compound transfer was performed using the ECHO 550 (Labcyte, Sunnyvale, Calif.) into 96-well clear bottom assay plates (Greiner Bio-One) with appropriate DMSO backfill for a final DMSO concentration of 0.05%. […] Plates were spun in a centrifuge for 1 minute at 10,000 rpm and supernatants were collected for ELISA.
Supernatants were diluted 1:1 for the TNFα assay and 1:4 for the IL6 assay using the assay medium. ELISA was performed using Human TNF-α ELISA MAX™ Deluxe (Catalog #430204, Biolegend, San Diego, Calif.) and Human IL-6 ELISA MAX™ Deluxe (Catalog #430504, Biolegend, San Diego, Calif.) kits. […] Following several washes to remove unbound avidin-HRP, the TMB substrate was added and the plates were read on the Cytation 3 plate reader (Biotek Inc., Winooski, Vt.) at an absorbance of 450 nm with correction at 570 nm. […] Inhibition profile and EC50 was calculated using Prism 5 (GraphPad Software Inc, La Jolla, Calif., USA).

## CC(C)CC(=O)Nc1cncc(-c2ccc3[nH]nc(-c4nc5c(-c6cccc(F)c6)cncc5[nH]4)c3c2)c1 [Compound 10]
[1]; Day 60
  radiochemical purity (RCP) of formulation over time: 94.5%
[1]; Day 90
  radiochemical purity (RCP) of formulation over time: 93%
[1]; Day 180
  radiochemical purity (RCP) of formulation over time: 83%
[1]; Days 0, 7, 14 and 30
  radiochemical purity (RCP) of formulation over time: ~95.5%
[2]
  administered radioactivity recovered in the knee: 75%
IL-6
  EC50: 13 nM
[3]
  inhibition of TNF-a secretion: inhibition
